Measured values as given in PMC8791529, “Schistosoma mansoni α-N-acetylgalactosaminidase (SmNAGAL) regulates coordinated parasite movement and egg production” (PLoS Pathogens, 2022).

Target: T1, SmNAGAL (Smp_089290) (Schistosoma mansoni, UniProt A0A8F5XXF6)
T1 construct: gene NAGAL; native enzyme in soluble worm antigen preparation (SWAP) of adult worms, not purified; assigned by siRNA knockdown
Experiment: colorimetric hydrolysis at […] nm in worm extract, with siRNA knockdown
Assay type: biochemical
Conditions: 0.15 M McIlvaine buffer pH 4.6, 37 °C, 60 min; SWAP of siLuc and siSmp_089290 worms

CC(=O)N[C@H]1[C@@H](Oc2ccc([N+](=O)[O-])cc2)O[C@H](CO)[C@H](O)[C@@H]1O [4-Nitrophenyl N-acetyl-α-D-galactosaminide]
colorimetric hydrolysis at 410 nm in worm extract, with siRNA knockdown: smnagal depletion in siRNA-treated worms significantly reduced α-NAGAL activity in SWAP
